In PMC6269876, “Pancreatic Lipase Inhibitory Gallotannins from Galla Rhois with Inhibitory Effects on Adipocyte Differentiation in 3T3-L1 Cells” (Molecules, 2013):

How the values were obtained:
[1] = molecular target: T1, porcine pancreatic lipase (Sus scrofa, UniProt P00591); assay: Pancreatic lipase activity assay (p-nitrophenylbutyrate hydrolysis); format: biochemical; conditions: for IC50: mean ± SD of three replicates, regression analysis, read-out: Pancreatic lipase inhibitory activity IC50
T1 construct: purchased Sigma, St. Louis, MO, USA
T1 sequence (P00591 1-450): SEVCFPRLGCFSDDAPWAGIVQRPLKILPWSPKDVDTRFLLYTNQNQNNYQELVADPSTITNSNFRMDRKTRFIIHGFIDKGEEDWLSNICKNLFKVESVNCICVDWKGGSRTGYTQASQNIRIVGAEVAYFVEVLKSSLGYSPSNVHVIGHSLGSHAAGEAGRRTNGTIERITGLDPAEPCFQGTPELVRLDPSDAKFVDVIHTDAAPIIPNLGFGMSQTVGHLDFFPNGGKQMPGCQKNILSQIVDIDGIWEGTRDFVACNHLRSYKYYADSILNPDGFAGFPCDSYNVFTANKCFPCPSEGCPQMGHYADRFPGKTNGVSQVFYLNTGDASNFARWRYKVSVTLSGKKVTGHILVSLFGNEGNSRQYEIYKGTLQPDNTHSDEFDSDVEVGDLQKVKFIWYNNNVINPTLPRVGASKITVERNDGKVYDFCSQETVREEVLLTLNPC
Experimental: A previously reported method, with a minor modification, was used for evaluation of the ability of the compounds to inhibit porcine pancreatic lipase. Briefly, an enzyme buffer was prepared by addition of 30 μL (10 units) of a solution of porcine pancreatic lipase (Sigma, St. Louis, MO, USA) in 10 mM morpholinepropanesulphonic acid (MOPS) and 1 mM EDTA (pH 6.8) to 850 μL of Tris buffer (100 mM Tris-HC1 and 5 mM CaCl2, pH 7.0). […] Inhibition of lipase activity was expressed as the percentage decrease in the optical density (OD) when porcine pancreatic lipase was incubated with the test compounds.

3T3-L1 cells = assay: Assay of adipocyte differentiation in 3T3-L1 cells (Oil Red O staining); format: cell-based; conditions: Mus musculus, 3T3-L1, 50 μM, treated throughout the differentiation period; read-out: Inhibition of lipid deposition (lipid accumulation)
Experimental: Of particular interest, a certain degree of galloylation on the glucose moiety of these active molecules appears to be required for potent inhibitory activity. […] The non-toxic concentrations of the tested compounds were established in 3T3-L1 preadipocytes using concentrations of 50, 25, and 10 μM. After two days of incubation, an MTT assay was performed for measurement of cell viability; according to the results, no cytotoxic effect was detectable for any of the tested compounds in concentrations up to 50 μM. […] 3T3-L1 mouse embryo fibroblasts were cultured in DMEM supplemented with 10% FBS until reaching confluence. Two days after reaching confluence (day 0), to initiated differentiation, cells were stimulated with differentiation medium containing DMEM with 10% FBS, 0.5 mM 3-isobutyl-1-methylxanthine, 1 μM insulin and 1 μM dexamethasone for two days (day 2). […] All media contained 100 IU/mL penicillin and 100 μg/mL streptomycin. Cells were maintained at 37 °C in a humidified atmosphere of 95% air-5% CO2. Throughout the culture period (days 0–8), the cultures were treated with test samples for general experiments, with a slight modification. […] For quantitative analysis, Oil Red O staining was dissolved with isopropyl alcohol and optical density was measured at 500 nm using an ELISA plate reader.

Row | IC50 [1] | SMILES | inhibition at 50 µM (3T3-L1 cells) | Pancreatic lipase inhibition, result in words [1]
1 | 30.6 ± 2.4 µM | C[C@H]1O[C@H](C)[C@@H](O)C2=C1C(=O)c1c(O)cc(O)c(-c3c4c(c(O)c5c(O[C@@H]6O[C@H](CO)[C@@H](O)[C@H](O)[C@H]6O)cc(O)cc35)[C@@H](C)O[C@H](C)[C@H]4O)c1C2=O [Compound 1, protoaphin-fb] |  | 
2 | 3.5 ± 0.5 µM | O=C(OC[C@H]1O[C@@H](OC(=O)c2cc(O)c(O)c(O)c2)[C@H](OC(=O)c2cc(O)c(O)c(OC(=O)c3cc(O)c(O)c(O)c3)c2)[C@@H](OC(=O)c2cc(O)c(O)c(O)c2)[C@@H]1OC(=O)c1cc(O)c(O)c(O)c1)c1cc(O)c(O)c(O)c1 [Compound 2, 2-O-digalloyl-1,3,4,6-tetra-O-galloyl-β-D-glucose] | 64% | 
3 | 15.9 ± 1 µM | O=C(OC[C@H]1O[C@@H](OC(=O)c2cc(O)c(O)c(O)c2)[C@H](OC(=O)c2cc(O)c(O)c(O)c2)[C@@H](OC(=O)c2cc(O)c(O)c(O)c2)[C@@H]1OC(=O)c1cc(O)c(O)c(O)c1)c1cc(O)c(O)c(O)c1 [Compound 3, 1,2,3,4,6-penta-O-galloyl-β-D-glucose] |  | 
4 | 23.2 ± 1.8 µM | O=C(OC[C@H]1O[C@@H](OC(=O)c2cc(O)c(O)c(O)c2)[C@H](OC(=O)c2cc(O)c(O)c(O)c2)[C@@H](O)[C@@H]1OC(=O)c1cc(O)c(O)c(O)c1)c1cc(O)c(O)c(O)c1 [Compound 4, 1,2,4,6-tetra-O-galloyl-β-D-glucose] |  | 
5 | > 300 µM | COC(=O)c1cc(O)c(O)c(O)c1 [Compound 6, methylgallate] |  | inactive

Row | SMILES | IC50 [1] | inhibition at 50 µM (3T3-L1 cells) | Pancreatic lipase inhibition, result in words [1]
6 | O=C(O)c1cc(O)c(O)c(O)c1 [Compound 7, gallic acid] | > 300 µM |  | inactive
